Measurements published in US7678390B2, “Carbon monoxide as a biomarker and therapeutic agent” (priority 1999, dated 2010).
Marks after values point to notes of the source that are not given here.

Key:
RAW 264.7 cells = assay: Nitrate/nitrite analysis of cell culture media; assay type: cell-based, mouse; details: 1 h post LPS, presence or absence of CO
Protocol: (§1) Nitrate/Nitrite Analysis. Both analytes were measured in the cell culture media which had been ultrafiltered to remove all proteins greater than 10,000 molecular weight. All samples were than analyzed according to the assay kit protocols. (R & D, Minneapolis, Minn.). cGMP Radioimmunoassay (RIA) in macrophages. Macrophages or vascular smooth muscle cells were exposed to CO (250 ppm) or air. 20 min before the end of the exposure 1 mM of 3-isobutyl-1-methylxanthine (IBMX) was added to the cells to prevent phosphodiesterase degradation of cGMP. After 2 h of exposure, cells were removed from the exposure chamber, rinsed with PBS and then 0.5 ml of 75% EtOH was added to the plate and cells were scraped and disrupted via sonication for 5 s. Samples were then centrifuged at 2000 g for 10 min. Supernatants were transferred to fresh tubes and evaporated to dryness. cGMP concentration in the cell extracts was determined by radioimmunoassay (NEN, Boston, Mass.) according to manufacturer's instructions. cGMP was normalized to protein concentration as determined by Bradford assay. Statistical Analysis. Data are expressed as the mean±SE. Differences in measured variables between experimental and control group were assessed using Student's t tests. Statistical calculations were performed on a Macintosh personal computer using the Statview II Statistical Package (Abacus Concepts, Berkeley, Calif.). […]

RAW 264.7 macrophages [1] = assay: LPS-induced cytokine production in macrophages (ELISA, Western); assay type: cell-based, mouse; details: for TNF-α: RAW 264.7 macrophages
Source text: (§2) Animals. Male C57BL/6 and IL-10 (−/−) mice were purchased from Jackson Laboratory (Bar Harbor, Me.), and allowed to acclimate for one week with rodent chow and water ad libitum. The MKK (−/−) mice were generated as previously described [Lu, et al., EMBO J. 18:1845-1857 (1999)]. Wild type littermates were used as controls. All animals were housed in accordance with guidelines from the American Association for Laboratory Animal Care and Research Protocols and were approved by the Animal Care and Use Committee of Yale University School of Medicine. Reagents. All reagents were purchased from Sigma Chemical Co. (St Louis, Mo.) unless specified otherwise. Plasmid Construct. Plasmid pSFFV/HO-1 was constructed by insertion of the rat HO-1 cDNA [Shibahara, et al., Proc. Natl. Acad. Sci. USA. 82: 7865-7869 (1985)] downstream of the Friend spleen focus-forming virus 5′ long-terminal repeat in the mammalian expression vector pSFFV/neo [Fuhlbrigge, et al, Proc. Natl. Acad. Sci. USA. 85: 5649-5653 (1988)] (kindly provided by Stanley Korsmeyer). Transfection. Stable transfections were carried out by the calcium phosphate precipitation technique as previously described [Alam, J., J. Biol. Chem. 269: 25049-25056 (1994)]. Briefly, RAW cells were plated (1×10^6/10 cm plate) and 16 h later, transfected with […] of pSFFV/neo or pSFFV/HO-1. Cells were exposed to the DNA-CaPO4 precipitate for 6 h, shocked by a 1 min treatment with glycerol in phosphate-buffered saline and cultured for an additional 24 h in complete medium before addition of G418. Transfectants were selected over a 3-week period in the presence of G418 (up to […]) and individual clones were isolated by limited dilution. Cell Culture Experimentation. RAW 264.7 mouse peritoneal macrophages were purchased from […] (Rockville, Md.) and primary culture of rat pulmonary vascular smooth muscle cells were harvested from male Sprague Dawley rats (250-300 g) as previously described [Gunther, et al., J. Cell. Biol. 92: 289-298 (1982).]. Both cell types were grown in DMEM containing 10% FBS and gentamicin ([…]) in a humidified atmosphere of 5% CO2/balanced air or 250 ppm CO/5% CO2/balanced air. After a 2 h pretreatment with either CO or air, LPS ([…]) or sterile saline was added to the culture media and the culture plates were returned to the chamber(s). At various time points, cell plates were removed from the chamber to collect media and/or cells for Western analysis. CO Exposures. Mice or macrophages were exposed to compressed air or 250 ppm CO. For cell culture experiments, 5% CO2 was also present for buffering requirements. CO at a concentration of 1% (10,000 ppm) in compressed air was mixed with compressed air with or without CO2 in a stainless steel mixing cylinder before delivery into the exposure chamber. Flow into the 3.70-ft^2 plexiglass animal chamber was maintained at 12 L/min and into the 1.2 ft^2 cell culture chamber at a flow of 2 L/min. The cell culture chamber was humidified and maintained at 37° C. A CO analyzer (Interscan, Chatsworth, Calif.) was used to measure CO levels continuously in the chambers. Gas samples were taken by the analyzer through a port in the top of the chambers at a rate of 1 L/min and analyzed by electrochemical detection, with a sensitivity of 10-600 ppm. Concentration levels were measured hourly and there were no fluctuations in the CO concentrations once the chamber had equilibrated (approximately 5 min). Animal Experimentation. Mice were prebled from the retroorbital sinus (0.25 ml) and then exposed to CO (250 ppm) or room air for 1 h prior to administration of LPS (1 mg/kg, i.p.), E. coli serotype O127:B8. 1 and 16 h thereafter, they were removed from the exposure apparatus individually and a blood sample was obtained via the retroorbital sinus. After the blood collection, the mice were immediately returned to the exposure chamber. […]

[2] = test system: IL-10(−/−) null mice given LPS; assay: LPS-induced serum TNF-α in IL-10(-/-) null mice; assay type: in vivo; details: Mus musculus, IL-10(−/−) mice, CO 250 ppm, 1 h, read-out: inhibition of serum TNF-α levels
Source text: (§3) Animals. Male C57BL/6 and IL-10 (−/−) mice were purchased from Jackson Laboratory (Bar Harbor, Me.), and allowed to acclimate for one week with rodent chow and water ad libitum. The MKK (−/−) mice were generated as previously described [Lu, et al., EMBO J. 18:1845-1857 (1999)]. Wild type littermates were used as controls. All animals were housed in accordance with guidelines from the American Association for Laboratory Animal Care and Research Protocols and were approved by the Animal Care and Use Committee of Yale University School of Medicine. Reagents. All reagents were purchased from Sigma Chemical Co. (St Louis, Mo.) unless specified otherwise. Plasmid Construct. Plasmid pSFFV/HO-1 was constructed by insertion of the rat HO-1 cDNA [Shibahara, et al., Proc. Natl. Acad. Sci. USA. 82: 7865-7869 (1985)] downstream of the Friend spleen focus-forming virus 5′ long-terminal repeat in the mammalian expression vector pSFFV/neo [Fuhlbrigge, et al, Proc. Natl. Acad. Sci. USA. 85: 5649-5653 (1988)] (kindly provided by Stanley Korsmeyer). Transfection. […] Gas samples were taken by the analyzer through a port in the top of the chambers at a rate of 1 L/min and analyzed by electrochemical detection, with a sensitivity of 10-600 ppm. Concentration levels were measured hourly and there were no fluctuations in the CO concentrations once the chamber had equilibrated (approximately 5 min). […]

[3] = test system: rat pulmonary vascular smooth muscle cells; assay: cGMP radioimmunoassay in vascular smooth muscle cells; assay type: cell-based; details: 2 h
Source text: as §3

[4] = test system: mice given LPS (wild type); assay: LPS-induced serum cytokines in mice exposed to CO; assay type: in vivo, mouse
Source text: as §2

MKK3/MKK6 = assay: LPS-induced activation of MKK3/MKK6 in RAW 264.7 cells; assay type: cell-based, mouse; details: LPS in the presence of CO (data not shown)
Source text: as §3

RAW 264.7 macrophages [5] = assay: cGMP radioimmunoassay in macrophages; assay type: cell-based, mouse; details: 2 h
Protocol: as §1

[C-]#[O+] [CO, carbon monoxide]
nitrate or nitrite levels (RAW 264.7 cells): no increases
LPS-induced TNF-α production (ELISA) (RAW 264.7 macrophages [1]; CO 250 ppm): significantly attenuated levels
LPS-induced MIP-2 (RAW 264.7 macrophages [1]; LPS, CO 250 ppm): not affecting
LPS-induced IFN-g (RAW 264.7 macrophages [1]; LPS, CO (data not shown)): not affecting
LPS-induced JE (RAW 264.7 macrophages [1]; LPS, CO (data not shown)): not affecting
LPS-induced KC (RAW 264.7 macrophages [1]; LPS, CO (data not shown)): not affecting
LPS-induced accumulation of IL-10 (RAW 264.7 macrophages [1]; LPS, CO at 250 ppm): significantly augmented
inhibition of TNF-α production in the media by ELISA (RAW 264.7 macrophages [1]; RAW 264.7 cells, LPS in the presence of CO): > 80%
TNF-α (RAW 264.7 macrophages [1]; with LPS): 230 ± 40^b pg/ml
TNF-α (RAW 264.7 macrophages [1]; without LPS): 15 ± 5 pg/mL
TNF-α protein expression by Western blot (RAW 264.7 macrophages [1]; cell lysates and media, LPS in the presence of CO): decreased TNF-α protein expression
inhibition at 250 ppm [2]: 66%
cGMP ([3]; VSM (vascular smooth muscle cells), CO 250 ppm): 8.1 ± 2^c pmol/mg protein
increase in cGMP content ([3]; smooth muscle cells, 250 ppm CO): 16 fold
TNF-α or IL-10 production without LPS ([4]; CO (250 ppm) alone, MKK3(−/−) or wild type(+/+) mice): no effect
IL-10 in response to LPS in vivo ([4]; LPS 1 mg/kg, mice, CO 250 ppm): augmentation
EC50 for attenuation of LPS-induced TNF-α production in vivo ([4]; LPS 1 mg/kg, mice, dose-dependent): 69.9 ppm
LPS-induced TNF-α production in vivo ([4]; LPS 1 mg/kg, mice, in the presence of CO): significant attenuation
inhibition at 250 ppm ([4]; Mus musculus, wild type controls, LPS, CO 250 ppm, 1 h, read-out: inhibition of serum TNF-α levels): 73%
LPS-induced serum TNF-α production ([4]; wild type(+/+) littermates, LPS 1 mg/kg, 250 ppm CO): attenuated levels
LPS-induced IL-10 levels ([4]; wild type(+/+) mice, LPS 1 mg/kg, 250 ppm CO): augmented
MKK3/MKK6 activation by LPS (MKK3/MKK6): augmentation
increase in cGMP (RAW 264.7 macrophages [5]; 250 ppm CO): no significant increase
cGMP (RAW 264.7 macrophages [5]; CO 250 ppm): 3.95 ± 0.6 pmol/mg protein
